Measurements: PubChem BioAssay AID1918947 (Molecular Pharmacology Branch, DTP, NCI, 2023)
Several values for one entry are separate records, joined by “and”; a condition that tells them apart may be missing. Equal values may be shown once. One block for each molecule: values may come before it.

Tested on: A498 complex spheroid viability
Experiment: Anticancer human tumor A498 cell line growth inhibition;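 further: spheroids exposed to agents for seven days before readout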;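 on viability, T/C: 100% = DMSO vehicle-treated spheroids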
Conditions: for viability, T/C: stronger effect = lower value
Outline: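 Drug combinations with the LSD1 inhibitor iadademstat tested on tumor cells co-cultured as spheroids with endothelial cells and mesenchymal stem cells. Concentrations descended in half-log increments from clinical Cmax or 10 microM.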

[1] = curve of first compound, second compound 0.1 µM
[2] = curve of first compound, second compound 0.316 µM
[3] = curve of first compound, second compound 1 µM
[4] = curve of first compound, second compound 3.16 µM
[5] = curve of first compound, second compound 10 µM
[6] = second compound 0.1 µM, first compound 0.00316 µM
[7] = second compound 0.1 µM, first compound 0.01 µM
[8] = second compound 0.1 µM, first compound 0.0316 µM
[9] = second compound 0.1 µM, first compound 0.1 µM
[10] = second compound 0.316 µM, first compound 0.00316 µM
[11] = second compound 0.316 µM, first compound 0.01 µM
[12] = second compound 0.316 µM, first compound 0.0316 µM
[13] = second compound 0.316 µM, first compound 0.1 µM
[14] = second compound 1 µM, first compound 0.00316 µM
[15] = second compound 1 µM, first compound 0.01 µM
[16] = second compound 1 µM, first compound 0.0316 µM
[17] = second compound 1 µM, first compound 0.1 µM
[18] = second compound 3.16 µM, first compound 0.00316 µM
[19] = second compound 3.16 µM, first compound 0.01 µM
[20] = second compound 3.16 µM, first compound 0.0316 µM
[21] = second compound 3.16 µM, first compound 0.1 µM
[22] = second compound 10 µM, first compound 0.00316 µM
[23] = second compound 10 µM, first compound 0.01 µM
[24] = second compound 10 µM, first compound 0.0316 µM
[25] = second compound 10 µM, first compound 0.1 µM

Structure (SMILES): Nc1ncn(C2CC(O)C(CO)O2)c(=O)n1 (stereo unspecified) + NC1CCC(NC2CC2c2ccccc2)CC1
IC50 [1]: 177 nM | IC50 [2]: 279 nM | IC50 [3]: 218 nM | IC50 [4]: 195 nM | IC50 [5]: 224 nM | viability, T/C [6]: 89.7% | viability, T/C [7]: 88.5% | viability, T/C [8]: 88.5% | viability, T/C [9]: 60.7% | viability, T/C (second compound 0.1 µM, first compound 0.316 µM): 40% | viability, T/C (second compound 0.1 µM, first compound 1 µM): 36.7% | viability, T/C [10]: 93.1% | viability, T/C [11]: 95.7% | viability, T/C [12]: 90.7% | viability, T/C [13]: 72.9% | viability, T/C (second compound 0.316 µM, first compound 0.316 µM): 47.3% | viability, T/C (second compound 0.316 µM, first compound 1 µM): 40.5% | viability, T/C [14]: 89.2% | viability, T/C [15]: 89.7% | viability, T/C [16]: 89.2% | viability, T/C [17]: 62.4% | viability, T/C (second compound 1 µM, first compound 0.316 µM): 46.4% | viability, T/C (second compound 1 µM, first compound 1 µM): 34.9% | viability, T/C [18]: 82.5% | viability, T/C [19]: 88.4% | viability, T/C [20]: 78.4% | viability, T/C [21]: 66.6% | viability, T/C (second compound 3.16 µM, first compound 0.316 µM): 38.1% | viability, T/C (second compound 3.16 µM, first compound 1 µM): 29.3% | viability, T/C [22]: 78% | viability, T/C [23]: 78.2% | viability, T/C [24]: 79.9% | viability, T/C [25]: 68.4% | viability, T/C (second compound 10 µM, first compound 0.316 µM): 42.2% | viability, T/C (second compound 10 µM, first compound 1 µM): 31.9%

Structure (SMILES): CCc1c2c(nc3ccc(O)cc13)-c1cc3c(c(=O)n1C2)COC(=O)[C@]3(O)CC + NC1CC1c1ccc(-c2cccc(O)c2)cc1
IC50 [1]: < 0.949 nM | IC50 [2]: < 0.949 nM | IC50 [3]: < 0.949 nM | IC50 [4]: < 0.949 nM | IC50 [5]: < 0.949 nM | viability, T/C (second compound 0.1 µM, first compound 0.000949 µM): 39.9% | viability, T/C (second compound 0.1 µM, first compound 0.003 µM): 34.3% | viability, T/C (second compound 0.1 µM, first compound 0.00949 µM): 23.6% | viability, T/C (second compound 0.1 µM, first compound 0.03 µM): 0.69% | viability, T/C (second compound 0.1 µM, first compound 0.0949 µM): 0.04% | viability, T/C (second compound 0.1 µM, first compound 0.3 µM): 0.13% | viability, T/C (second compound 0.316 µM, first compound 0.000949 µM): 37.5% | viability, T/C (second compound 0.316 µM, first compound 0.003 µM): 36.1% | viability, T/C (second compound 0.316 µM, first compound 0.00949 µM): 25.2% | viability, T/C (second compound 0.316 µM, first compound 0.03 µM): 1.05% | viability, T/C (second compound 0.316 µM, first compound 0.0949 µM): 0.04% | viability, T/C (second compound 0.316 µM, first compound 0.3 µM): 0.13% | viability, T/C (second compound 1 µM, first compound 0.000949 µM): 42.8% | viability, T/C (second compound 1 µM, first compound 0.003 µM): 31.7% | viability, T/C (second compound 1 µM, first compound 0.00949 µM): 23.8% | viability, T/C (second compound 1 µM, first compound 0.03 µM): 0.94% | viability, T/C (second compound 1 µM, first compound 0.0949 µM): 0.05% | viability, T/C (second compound 1 µM, first compound 0.3 µM): 0.13% | viability, T/C (second compound 3.16 µM, first compound 0.000949 µM): 43% | viability, T/C (second compound 3.16 µM, first compound 0.003 µM): 32% | viability, T/C (second compound 3.16 µM, first compound 0.00949 µM): 24.8% | viability, T/C (second compound 3.16 µM, first compound 0.03 µM): 1.16% | viability, T/C (second compound 3.16 µM, first compound 0.0949 µM): 0.06% | viability, T/C (second compound 3.16 µM, first compound 0.3 µM): 0.51% | viability, T/C (second compound 10 µM, first compound 0.000949 µM): 41% | viability, T/C (second compound 10 µM, first compound 0.003 µM): 30.1% | viability, T/C (second compound 10 µM, first compound 0.00949 µM): 23.3% | viability, T/C (second compound 10 µM, first compound 0.03 µM): 0.83% | viability, T/C (second compound 10 µM, first compound 0.0949 µM): 0.14% | viability, T/C (second compound 10 µM, first compound 0.3 µM): 0.99%

IC50 (curve of compound): > 3000 nM and 2640 nM
Structure (SMILES): COc1cc(C2c3cc4c(cc3C(OC3OC5COC(C)OC5C(O)C3O)C3COC(=O)C23)OCO4)cc(OC)c1O (stereo unspecified)
viability, T/C (compound 0.00949 µM): 89.7% and 87% | viability, T/C (compound 0.03 µM): 92.9% and 75.5% | viability, T/C (compound 0.0949 µM): 82.8% and 70.3% | viability, T/C (compound 0.3 µM): 78.1% and 74.6% | viability, T/C (compound 0.949 µM): 68.8% and 57% | viability, T/C (compound 3 µM): 56.8% and 48.7%

Structure (SMILES): CC[C@@]1(O)C(=O)OCc2c1cc1n(c2=O)Cc2cc3c(CN(C)C)c(O)ccc3nc2-1 + NC1CC1c1ccc(-c2cccc(O)c2)cc1
IC50 [1]: 42.5 nM | IC50 [2]: 43.7 nM | IC50 [3]: 37.8 nM | IC50 [4]: 30.2 nM | IC50 [5]: 26.1 nM | viability, T/C (second compound 0.1 µM, first compound 0.000316 µM): 105% | viability, T/C (second compound 0.1 µM, first compound 0.001 µM): 106% | viability, T/C [6]: 79.1% | viability, T/C [7]: 76.4% | viability, T/C [8]: 60.6% | viability, T/C [9]: 29.8% | viability, T/C (second compound 0.316 µM, first compound 0.000316 µM): 110% | viability, T/C (second compound 0.316 µM, first compound 0.001 µM): 103% | viability, T/C [10]: 82.2% | viability, T/C [11]: 73.1% | viability, T/C [12]: 59.6% | viability, T/C [13]: 33.8% | viability, T/C (second compound 1 µM, first compound 0.000316 µM): 102% | viability, T/C (second compound 1 µM, first compound 0.001 µM): 103% | viability, T/C [14]: 86.5% | viability, T/C [15]: 69.4% | viability, T/C [16]: 55.8% | viability, T/C [17]: 32.9% | viability, T/C (second compound 3.16 µM, first compound 0.000316 µM): 104% | viability, T/C (second compound 3.16 µM, first compound 0.001 µM): 95.4% | viability, T/C [18]: 74.6% | viability, T/C [19]: 60.5% | viability, T/C [20]: 58.8% | viability, T/C [21]: 29.5% | viability, T/C (second compound 10 µM, first compound 0.000316 µM): 103% | viability, T/C (second compound 10 µM, first compound 0.001 µM): 92.4% | viability, T/C [22]: 75.8% | viability, T/C [23]: 65.5% | viability, T/C [24]: 49% | viability, T/C [25]: 27.7%

IC50 (curve of compound): 365 nM and 282 nM
Structure (SMILES): O=C(C=Cc1cccc(S(=O)(=O)Nc2ccccc2)c1)NO
viability, T/C (compound 0.00949 µM): 94% and 91% | viability, T/C (compound 0.03 µM): 82.5% and 80.6% | viability, T/C (compound 0.0949 µM): 70.8% and 65.3% | viability, T/C (compound 0.3 µM): 53.1% and 46.8% | viability, T/C (compound 0.949 µM): 33.8% and 34.2% | viability, T/C (compound 3 µM): 12.4% and 8.72%

IC50 (curve of compound): < 0.949 nM
Structure (SMILES): CCc1c2c(nc3ccc(O)cc13)-c1cc3c(c(=O)n1C2)COC(=O)[C@]3(O)CC
viability, T/C (compound 0.000949 µM): 42.1% and 37.3% | viability, T/C (compound 0.003 µM): 33% and 33.4% | viability, T/C (compound 0.00949 µM): 24.4% and 22.1% | viability, T/C (compound 0.03 µM): 1.45% and 0.7% | viability, T/C (compound 0.0949 µM): 0.15% | viability, T/C (compound 0.3 µM): 0.18% and 0.21%

IC50 (curve of compound): 39.2 nM and 45.3 nM
Structure (SMILES): NS(=O)(=O)OCC1CC(n2ccc3c(NC4CCc5ccccc54)ncnc32)CC1O (stereo unspecified)
viability, T/C (compound 0.00949 µM): 81% and 90.7% | viability, T/C (compound 0.03 µM): 57.2% and 60.5% | viability, T/C (compound 0.0949 µM): 27.1% and 30.7% | viability, T/C (compound 0.3 µM): 18.4% and 21.2% | viability, T/C (compound 0.949 µM): 12.2% and 15.6% | viability, T/C (compound 3 µM): 9.37% and 11.7%

IC50 (compound alone, run of 11/29/2021): > 10000 nM
Structure (SMILES): NC1CCC(NC2CC2c2ccccc2)CC1 (stereo unspecified)
viability, T/C (compound 0.1 µM): 86.8% [middle of 25 runs] | viability, T/C (compound 0.316 µM): 85.2% and 90.6% | viability, T/C (compound 1 µM): 86% [middle of 25 runs] | viability, T/C (compound 3.16 µM): 84.7% [middle of 25 runs] | viability, T/C (compound 10 µM): 75.1% [middle of 23 runs]

IC50 (curve of compound): 7.74 nM and 6.34 nM
Structure (SMILES): O=C(C=Cn1cnc(-c2cc(C(F)(F)F)cc(C(F)(F)F)c2)n1)NNc1cnccn1
viability, T/C (compound 0.00316 µM): 71.3% and 66.5% | viability, T/C (compound 0.01 µM): 42.9% and 36.6% | viability, T/C (compound 0.0316 µM): 32.5% and 31.3% | viability, T/C (compound 0.1 µM): 29.1% and 26.8% | viability, T/C (compound 0.316 µM): 25.6% and 26.2% | viability, T/C (compound 1 µM): 22.2% and 17.3%
